6 compounds from patent US8716333B2, “Process and compounds for the manufacture of oseltamivir and analogs thereof, and new antiviral agents” (Brock University, priority 2009, dated 2014) can be followed below.

The target in one data set is T1, Neu1 sialidase (Mus musculus, UniProt O35657).
T1 construct: endogenous in cells; host or cells: RAW-blue macrophage cells
Description: LPS-induced Neu1 sialidase activity in live RAW-blue macrophage cells (4MU-NeuAc fluorescence). As to conditions: for pIC50: LPS-induced sialidase activity on the cell surface of live RAW-blue macrophage cells, substrate 4MU-NeuAc, fluorescence at 1-2 min. Format: cell-based. The protocol: Inhibitory Potency of Compounds of the Application on Lipopolysaccharide (LPS)-Induced Neu1 Sialidase Activity in Live Raw-Blue Macrophage Cells
Compounds of the application were assessed for antiviral activity using an assay that detects sialidase activity on the surface of viable cells. […] Fluorescent images were taken at 1-2 minutes after adding the substrate using epi-fluorescent microscopy (40× objective). The mean fluorescence surrounding the cells for each of the images was measured using Image J software.

Each structure is given as a SMILES string. pIC50: −log10 of the molar value.

One may read the melting point as the temperature of the solid-liquid transition. Turning to `CCOC(=O)C1=C[C@@H]2OC(C)=N[C@@H]2[C@@H](NC(=O)OC(C)(C)C)C1` [Compound 14, (3aR,4S,7aS)-ethyl 4-(tert-butoxycarbonylamino)-2-methyl-3a,4,5,7a-tetrahydrobenzo[d]oxazole-6-carboxylate], the melting point lay in the range of 45 to 49 °C.

For `CCOC(=O)C1=C[C@@H](OC(CC)CC)[C@H](NC(C)=O)[C@@H](NC(=O)OC(C)(C)C)C1` [Compound 15, (3R,4R,5S)-ethyl 4-acetamido-5-(tert-butoxycarbonylamino)-3-(pentan-3-yloxy)cyclohex-1-enecarboxylate], the melting point was 144 to 145 °C.

One may read the pIC50 as the IC50 on a negative log10 scale, so that one unit is a factor of ten. Compound `CC(=O)N[C@@H]1C=C[C@@](O)(C(=O)O)[C@H]2OC(C)(C)O[C@@H]12` [Compound 16, Sodium (3aS,4S,7R,7aS)-7-acetamido-4-hydroxy-2,2-dimethyl-3a,4,7,7a-tetrahydrobenzo[d][1,3]dioxole-4-carboxylate] had a pIC50 against Neu1 sialidase of 6.85.

For the compound `CC(=O)N[C@@H]1/C(=N/O)C=C(C(=O)O)[C@H]2OC(C)(C)O[C@H]21` [Compound 17, Sodium (3aR,7R,7aS,E)-7-acetamido-6-(hydroxyimino)-2,2-dimethyl-3a,6,7,7a-tetrahydrobenzo[d][1,3]dioxole-4-carboxylate], the pIC50 against Neu1 sialidase is 7.90. This pIC50 lies 1.05 log units higher than the previous one.

Turning to `CC(=O)N[C@H]1[C@@H]2OC(C)(C)O[C@@H]2C(C(=O)O)=C[C@H]1O` [Compound 19, Sodium (3aR,6R,7R,7aS)-7-acetamido-6-hydroxy-2,2-dimethyl-3a,6,7,7a-tetrahydrobenzo[d][1,3]dioxole-4-carboxylate], the pIC50 against Neu1 sialidase was 5.13.

As for `CCOC(=O)C1=C[C@@H](OC(CC)CC)[C@H](NC(C)=O)[C@@H](N)C1` [oseltamivir phosphate 1a (Tamiflu ®), oseltamivir phosphate, reference compound], the “inhibition of LPS-induced sialidase activity” value against Neu1 sialidase (RAW-blue macrophage cells, dose dependent manner) is reported as “completely inhibited”.
